Source: the NIST ThermoML archive (doi:10.1021/acs.jced.5b00259)

Assay: xn = mol fraction of the nth substance listed
Details: 100 kPa, Liquid

CCOS(=O)(=O)[O-].CC[NH+]=C(N(C)C)N(C)C [2-ethyl-1,1,3,3-tetramethylguanidinium ethyl sulfate] + CCCO
Details | mass density [kg/m3] | viscosity [mPa·s]
293.15 K, x1 = 0.0997 | 898.6 | 4.426
293.15 K, x1 = 0.2003 | 964.92 | 8.127
293.15 K, x1 = 0.3066 | 1016.48 | 16.78
293.15 K, x1 = 0.3996 | 1051.52 | 27.09
293.15 K, x1 = 0.5016 | 1082.4 | 48.51
293.15 K, x1 = 0.5989 | 1106.32 | 82.64
293.15 K, x1 = 0.6984 | 1126.59 | 134.4
293.15 K, x1 = 0.7999 | 1144.02 | 243.1
293.15 K, x1 = 0.8981 | 1158.38 | 405.5
293.15 K, x1 = 1 | 1170.76 | 673.4
298.15 K, x1 = 0.0997 | 894.7 | 3.9
298.15 K, x1 = 0.2003 | 961.16 | 7.044
298.15 K, x1 = 0.3066 | 1012.78 | 13.97
298.15 K, x1 = 0.3996 | 1047.86 | 22.36
298.15 K, x1 = 0.5016 | 1078.78 | 38.84
298.15 K, x1 = 0.5989 | 1102.73 | 63.88
298.15 K, x1 = 0.6984 | 1123.01 | 100.3
298.15 K, x1 = 0.7999 | 1140.47 | 174.3
298.15 K, x1 = 0.8981 | 1154.86 | 278.2
298.15 K, x1 = 1 | 1167.24 | 441.5
303.15 K, x1 = 0.0997 | 890.9 | 3.455
303.15 K, x1 = 0.2003 | 957.41 | 6.152
303.15 K, x1 = 0.3066 | 1009.1 | 12.3
303.15 K, x1 = 0.3996 | 1044.26 | 18.74
303.15 K, x1 = 0.5016 | 1075.17 | 31.58
303.15 K, x1 = 0.5989 | 1099.15 | 50.4
303.15 K, x1 = 0.6984 | 1119.44 | 76.66
303.15 K, x1 = 0.7999 | 1136.93 | 128.5
303.15 K, x1 = 0.8981 | 1151.36 | 197.5
303.15 K, x1 = 1 | 1163.76 | 302.5
308.15 K, x1 = 0.0997 | 887.03 | 3.077
308.15 K, x1 = 0.2003 | 953.65 | 5.412
308.15 K, x1 = 0.3066 | 1005.42 | 10.72
308.15 K, x1 = 0.3996 | 1040.62 | 15.88
308.15 K, x1 = 0.5016 | 1071.58 | 26.07
308.15 K, x1 = 0.5989 | 1095.58 | 40.53
308.15 K, x1 = 0.6984 | 1115.89 | 59.78
308.15 K, x1 = 0.7999 | 1133.41 | 97.5
308.15 K, x1 = 0.8981 | 1147.85 | 145.3
308.15 K, x1 = 1 | 1160.28 | 214.6
313.15 K, x1 = 0.0997 | 883.16 | 2.751
313.15 K, x1 = 0.2003 | 949.88 | 4.79
313.15 K, x1 = 0.3066 | 1001.73 | 9.145
313.15 K, x1 = 0.3996 | 1036.98 | 13.59
313.15 K, x1 = 0.5016 | 1068 | 21.82
313.15 K, x1 = 0.5989 | 1092.03 | 33.1
313.15 K, x1 = 0.6984 | 1112.37 | 47.59
313.15 K, x1 = 0.7999 | 1129.9 | 75.47
313.15 K, x1 = 0.8981 | 1144.35 | 110
313.15 K, x1 = 1 | 1156.8 | 157.2
318.15 K, x1 = 0.0997 | 879.26 | 2.471
318.15 K, x1 = 0.2003 | 946.11 | 4.266
318.15 K, x1 = 0.3066 | 998.04 | 7.69
318.15 K, x1 = 0.3996 | 1033.37 | 11.73
318.15 K, x1 = 0.5016 | 1064.43 | 18.48
318.15 K, x1 = 0.5989 | 1088.5 | 27.42
318.15 K, x1 = 0.6984 | 1108.86 | 38.53
318.15 K, x1 = 0.7999 | 1126.4 | 59.7
318.15 K, x1 = 0.8981 | 1140.87 | 84.19
318.15 K, x1 = 1 | 1153.33 | 118.3
323.15 K, x1 = 0.0997 | 875.35 | 2.228
323.15 K, x1 = 0.2003 | 942.33 | 3.819
323.15 K, x1 = 0.3066 | 994.35 | 6.777
323.15 K, x1 = 0.3996 | 1029.73 | 10.2
323.15 K, x1 = 0.5016 | 1060.87 | 15.79
323.15 K, x1 = 0.5989 | 1084.97 | 23.01
323.15 K, x1 = 0.6984 | 1105.36 | 31.66
323.15 K, x1 = 0.7999 | 1122.93 | 47.99
323.15 K, x1 = 0.8981 | 1137.4 | 66.48
323.15 K, x1 = 1 | 1149.87 | 91.22

CCOS(=O)(=O)[O-].CC[NH+]=C(N(C)C)N(C)C [2-ethyl-1,1,3,3-tetramethylguanidinium ethyl sulfate] + CCO
Details | mass density [kg/m3] | viscosity [mPa·s]
293.15 K, x1 = 0.0998 | 910.21 | 2.824
293.15 K, x1 = 0.2003 | 984.3 | 5.826
293.15 K, x1 = 0.3006 | 1033.78 | 11.42
293.15 K, x1 = 0.4016 | 1069.61 | 22.83
293.15 K, x1 = 0.498 | 1095.76 | 40.88
293.15 K, x1 = 0.5996 | 1117.54 | 73.39
293.15 K, x1 = 0.6976 | 1134.51 | 127.4
293.15 K, x1 = 0.7969 | 1148.58 | 213.6
293.15 K, x1 = 0.9008 | 1160.83 | 385.6
293.15 K, x1 = 1 | 1170.76 | 673.4
298.15 K, x1 = 0.0998 | 906.2 | 2.546
298.15 K, x1 = 0.2003 | 980.34 | 5.136
298.15 K, x1 = 0.3006 | 1030 | 9.821
298.15 K, x1 = 0.4016 | 1065.96 | 19.07
298.15 K, x1 = 0.498 | 1092.12 | 33.16
298.15 K, x1 = 0.5996 | 1113.91 | 57.2
298.15 K, x1 = 0.6976 | 1130.91 | 95.44
298.15 K, x1 = 0.7969 | 1145.02 | 154
298.15 K, x1 = 0.9008 | 1157.3 | 264.4
298.15 K, x1 = 1 | 1167.24 | 441.5
303.15 K, x1 = 0.0998 | 902.18 | 2.307
303.15 K, x1 = 0.2003 | 976.55 | 4.559
303.15 K, x1 = 0.3006 | 1026.22 | 8.524
303.15 K, x1 = 0.4016 | 1062.27 | 16.15
303.15 K, x1 = 0.498 | 1088.47 | 27.11
303.15 K, x1 = 0.5996 | 1110.31 | 45.41
303.15 K, x1 = 0.6976 | 1127.33 | 73.08
303.15 K, x1 = 0.7969 | 1141.46 | 114.2
303.15 K, x1 = 0.9008 | 1153.79 | 187.9
303.15 K, x1 = 1 | 1163.76 | 302.5
308.15 K, x1 = 0.0998 | 898.18 | 2.096
308.15 K, x1 = 0.2003 | 972.66 | 4.072
308.15 K, x1 = 0.3006 | 1022.45 | 7.459
308.15 K, x1 = 0.4016 | 1058.6 | 13.81
308.15 K, x1 = 0.498 | 1084.84 | 22.56
308.15 K, x1 = 0.5996 | 1106.73 | 36.71
308.15 K, x1 = 0.6976 | 1123.77 | 57.39
308.15 K, x1 = 0.7969 | 1137.92 | 86.55
308.15 K, x1 = 0.9008 | 1150.29 | 134.9
308.15 K, x1 = 1 | 1160.28 | 214.6
313.15 K, x1 = 0.0998 | 894.15 | 1.91
313.15 K, x1 = 0.2003 | 968.7 | 3.656
313.15 K, x1 = 0.3006 | 1018.66 | 6.577
313.15 K, x1 = 0.4016 | 1054.91 | 11.92
313.15 K, x1 = 0.498 | 1081.22 | 19.04
313.15 K, x1 = 0.5996 | 1103.16 | 30.14
313.15 K, x1 = 0.6976 | 1120.23 | 45.97
313.15 K, x1 = 0.7969 | 1134.39 | 67.31
313.15 K, x1 = 0.9008 | 1146.78 | 103.7
313.15 K, x1 = 1 | 1156.8 | 157.2
318.15 K, x1 = 0.0998 | 890.12 | 1.746
318.15 K, x1 = 0.2003 | 964.81 | 3.298
318.15 K, x1 = 0.3006 | 1014.86 | 5.839
318.15 K, x1 = 0.4016 | 1051.24 | 10.38
318.15 K, x1 = 0.498 | 1077.62 | 16.26
318.15 K, x1 = 0.5996 | 1099.62 | 25.65
318.15 K, x1 = 0.6976 | 1116.66 | 37.27
318.15 K, x1 = 0.7969 | 1130.88 | 53.38
318.15 K, x1 = 0.9008 | 1143.26 | 79.6
318.15 K, x1 = 1 | 1153.33 | 118.3
323.15 K, x1 = 0.0998 | 886.07 | 1.601
323.15 K, x1 = 0.2003 | 960.91 | 2.99
323.15 K, x1 = 0.3006 | 1011.05 | 5.215
323.15 K, x1 = 0.4016 | 1047.55 | 9.094
323.15 K, x1 = 0.498 | 1074.02 | 14.01
323.15 K, x1 = 0.5996 | 1096.11 | 21.2
323.15 K, x1 = 0.6976 | 1113.14 | 30.75
323.15 K, x1 = 0.7969 | 1127.39 | 43.06
323.15 K, x1 = 0.9008 | 1139.76 | 62.7
323.15 K, x1 = 1 | 1149.87 | 91.22
